Measurements taken from patent publication US9725414B2, “Fungicidal N-bicycloalkyl and N-tricycloalkyl pyrazole-4-(thio)carboxamide derivatives” (priority 2011, dated 2017).
Where two headings read alike, the source gives them in different places.

Columns and labels:
[1] = log P by HPLC on reversed-phase column (C 18), EEC Directive 79831 Annex V.A8; format: physicochemical
Procedure: In table 1, the log P values were determined in accordance with EEC Directive 79831 Annex V.A8 by HPLC (High Performance Liquid Chromatography) on a reversed-phase column (C 18), using the method described below: Temperature: 40° C.; Mobile phases: 0.1% aqueous formic acid and acetonitrile; linear gradient from 10% acetonitrile to 90% acetonitrile. Calibration was carried out using unbranched alkan-2-ones (comprising 3 to 16 carbon atoms) with known log P values (determination of the log P values by the retention times using linear interpolation between two successive alkanones). lambda-max-values were determined using UV-spectra from 200 nm to 400 nm and the peak values of the chromatographic signals.

Sphaerotheca fuliginea = assay: Example B: in vivo preventive test on Sphaerotheca fuliginea (powdery mildew on cucurbits), gherkin plants; conditions: 500 ppm of active ingredient, grading 12 days after contamination
Procedure: In Vivo Preventive Test on Sphaerotheca fuliginea (Powdery Mildew on Cucurbits) […] Gherkin plants (“Vert petit de Paris” variety), sown in starter cups on a 50/50 peat soil-pozzolana substrate and grown at 24° C. are treated at the Z11 cotyledon stage by spraying with the active ingredient prepared as described above. Plants, used as controls, are treated with the mixture of acetone/tween/DMSO/water not containing the active material. After 24 hours, the plants are contaminated by spraying the cotyledons with an aqueous suspension of Sphaerotheca fuliginea spores (100 000 spores per mL). The spores are collected from infected plants.

Pyrenophora teres [2] = assay: Example F: in vivo preventive test on Pyrenophora teres (barley), acetone/tween/DMSO preparation; conditions: 500 ppm of active ingredient, barley, grading 14 days after contamination
Procedure: In Vivo Preventive Test on Pyrenophora teres (Barley) […] Barley plants (“Plaisant” variety), sown in starter cups on a 50/50 peat soil pozzolana substrate and grown at 22° C., are treated at the 1 leaf stage (10 cm height) by spraying with the active ingredient prepared as described above. Plants, used as controls, are treated with the mixture of acetone/tween/DMSO/water not containing the active material. After 24 hours, the plants are contaminated by spraying the leaves with an aqueous suspension of Pyrenophora teres spores (12 000 spores per mL). The spores are collected from a 12-day-old culture. […] Grading (% of efficacy) is carried out 14 days after the contamination, in comparison with the control plants.

Puccinia recondita = assay: Example M: in vivo preventive test on Puccinia recondita (brown rust on wheat); conditions: 500 ppm of active ingredient, grading 12 days after contamination
Procedure: In Vivo Preventive Test on Puccinia recondita (Brown Rust on Wheat) […] Wheat plants (“Scipion” variety), sown in starter cups on a 50/50 peat soil pozzolana substrate and grown at 22° C., are treated at the 1 leaf stage (10 cm height) by spraying with the active ingredient prepared as described above. Plants, used as controls, are treated with the mixture of acetone/tween/DMSO/water not containing the active material. After 24 hours, the plants are contaminated by spraying the leaves with an aqueous suspension of Puccinia recondite spores (100 000 spores per mL). The spores are collected from an infected plant and are suspended in water containing 2.5 mL/L of Tween 80 at 10%. […] Grading (% of efficacy) is carried out 12 days after the contamination, in comparison with the control plants.

Botrytis cinerea = assay: Example P: in vivo preventive test on Botrytis cinerea (grey mould), gherkin plants; conditions: 500 ppm of active ingredient, grading 4 to 5 days after contamination
Procedure: In Vivo Preventive Test on Botrytis cinerea (Grey Mould) […] Gherkin plants (“Vert petit de Paris” variety), sown in starter cups on a 50/50 peat soil pozzolana substrate and grown at 24° C. are treated at the Z11 cotyledon stage by spraying with the active ingredient prepared as described above. Plants, used as controls, are treated with the mixture of acetone/tween/DMSO/water not containing the active material. After 24 hours, the plants are contaminated by spraying the cotyledons with an aqueous suspension of cryopreserved Botrytis cinerea spores (50 000 spores per mL). The spores are suspended in a nutrient solution composed of 10 g/L of PDB, 50 g/L of D-Fructose, 2 g/L of NH4NO3 and 1 g/L of KH2PO4. The contaminated gherkin plants are incubated at 17° C. and at 90% relative humidity. Grading (% of efficacy) is carried out 4 to 5 days after the contamination, in comparison with the control plants.

Alternaria solani = assay: Example C: in vivo preventive test on Alternaria solani (tomato); conditions: 500 ppm of active ingredient, evaluated 7 days after inoculation
Procedure: (§1) In Vivo Preventive Test on Alternaria solani (Tomato) Solvent: 49 parts by weight of N,N-dimethylformamide Emulsifier: 1 part by weight of alkylarylpolyglycolether To produce a suitable preparation of active compound, 1 part by weight of active compound is mixed with the stated amounts of solvent and emulsifier, and the concentrate is diluted with water to the desired concentration. To test for preventive activity, young plants are sprayed with the preparation of active compound at the stated rate of application. One day after this treatment, the plants are inoculated with an aqueous spore suspension of Alternaria solani. The plants remain for one day in an incubation cabinet at approximately 22° C. and a relative atmospheric humidity of 100%. Then the plants are placed in an incubation cabinet at approximately 20° C. and a relative atmospheric humidity of 96%.

Pyrenophora teres [3] = assay: Example E: in vivo preventive test on Pyrenophora teres (barley), DMF/emulsifier preparation; conditions: 500 ppm of active ingredient, evaluated 7-9 days after inoculation
Procedure: as §1, with “Pyrenophora teres (Barley)” for “Alternaria solani (Tomato)”, “alkylaryl polyglycol ether” for “alkylarylpolyglycolether”, “Pyrenophora teres.” for “Alternaria solani.”, “48 hours” for “one day”, “at” for “at approximately”, “100%.” for “100%. Then the plants are placed in an incubation cabinet at approximately 20° C. and a relative atmospheric humidity of 96%.”

Septoria tritici = assay: Example I: in vivo preventive test on Septoria tritici (wheat), acetone/tween/DMSO preparation; conditions: 500 ppm of active ingredient, grading 24 days after contamination
Procedure: In Vivo Preventive Test on Septoria tritici (Wheat) […] Wheat plants (“Scipion” variety), sown in starter cups on a 50/50 peat soil pozzolana substrate and grown at 22° C., are treated at the 1 leaf stage (10 cm height) by spraying with the active ingredient prepared as described above. Plants, used as controls, are treated with the mixture of acetone/tween/DMSO/water not containing the active material. After 24 hours, the plants are contaminated by spraying the leaves with an aqueous suspension of cryopreserved Septoria tritici spores (500 000 spores per mL). The contaminated wheat plants are incubated for 72 hours at 18° C. and at 100% relative humidity, and then for 21 days at 90% relative humidity. Grading (% of efficacy) is carried out 24 days after the contamination, in comparison with the control plants.

Uromyces appendiculatus = assay: Example Q: in vivo preventive test on Uromyces appendiculatus (bean rust); conditions: Uromyces appendiculatus on bean plants, 500 ppm of active ingredient, grading 11 days after contamination
Procedure: In Vivo Preventive Test on Uromyces appendiculatus (Bean Rust) […] Bean plants (“Saxa” variety), sown in starter cups on a 50/50 peat soil pozzolana substrate and grown at 24° C., are treated at the 2 leaf stage (9 cm height) by spraying with the active ingredient prepared as described above. Plants, used as controls, are treated with the mixture of acetone/tween/DMSO/water not containing the active material. After 24 hours, the plants are contaminated by spraying the leaves with an aqueous suspension of Uromyces appendiculatus spores (150 000 spores per mL). The spores are collected from infected plants and are suspended in water containing 2.5 mL/L of Tween 80 at 10%. […] Grading (% of efficacy) is carried out 11 days after the contamination, in comparison with the control plants.

[4] = HPLC reversed-phase C 18, 40° C., 0.1% aqueous formic acid and acetonitrile gradient, several values = mixture of two or more isomers

| SMILES | logP [1, 4] | logP [1] | Efficacy (Sphaerotheca fuliginea) [%] | Efficacy (Pyrenophora teres [2]) [%] | Efficacy (Puccinia recondita) [%] | Efficacy (Botrytis cinerea) [%] | Efficacy (Alternaria solani) [%] | Efficacy (Pyrenophora teres [3]) [%] | Efficacy (Septoria tritici) [%] | Efficacy (Uromyces appendiculatus) [%] |
| --- | --- | --- | --- | --- | --- | --- | --- | --- | --- | --- |
| CON(C(=O)c1c(C(F)F)nn(C)c1F)C(C)C1CC2CCC1C2 (stereo not drawn) [Example 99] | 3.67 | – | 100 | 100 | 95 | 100 | – | – | – | – |
| Cn1nc(C(F)F)c(C(=O)N(C2CC2)C2CCC3CCCCC3C2)c1F (mixture of isomers) [Example 38] | – | – | 93 | 100 | 100 | – | 95 | 100 | 96 | 100 |
| Cn1cc(C(=O)N(CC2CCC3CCCC32)C2CC2)c(C(F)F)n1 (stereo not drawn) [Example 59] | 3.50 | – | 100 | 100 | 89 | 100 | – | – | – | 75 |
| Cn1cc(C(=O)NC2CCC3CCCC32)c(C(F)F)n1 (stereo not drawn) [Example 1] | 2.51 | – | – | – | 94 | – | – | – | 80 | 95 |
| Cn1nc(C(F)F)c(C(=O)N(C2CC2)C2CCC3CCCC3C2)c1Cl (mixture of isomers) [Example 21] | – | – | – | – | 94 | – | 90 | 100 | – | 98 |
| Cn1nc(C(F)F)c(C(=O)NC23CC4CC(CC(C4)C2)C3)c1F [Example 56] | – | 3.57 | – | – | – | 100 | – | – | 83 | – |
| Cn1cc(C(=O)NC2CC3CCC2C3)c(C(F)F)n1 (stereo not drawn) [Example 46] | 2.14 | – | – | – | – | 88 | – | – | 75 | 85 |
| CON(C(=O)c1cn(C)nc1C(F)F)C(C)C1CC2CCC1C2 (stereo not drawn) [Example 100] | 3.42 | – | 100 | 100 | 90 | 100 | – | – | – | 100 |
| Cn1cc(C(=O)N(C2CC2)C2CC3CCCCC3C2)c(C(F)F)n1 (stereo not drawn) [Example 13] | 3.61 | – | 80 | 97 | – | 100 | – | – | 90 | 91 |
| Cn1cc(C(=O)N(CC2CCC3CCCC3C2)C2CC2)c(C(F)F)n1 (stereo not drawn) [Example 63] | 3.92 | – | 100 | 79 | 81 | 85 | – | – | 97 | – |
| Cn1nc(C(F)F)c(C(=O)N(CC2CC3C=CC2C3)C2CC2)c1F (stereo not drawn) [Example 73] | – | 3.23 | – | 100 | – | 93 | – | – | – | – |

The next lines start with results.

| logP [1, 4] | logP [1] | SMILES | Efficacy (Sphaerotheca fuliginea) [%] | Efficacy (Pyrenophora teres [2]) [%] | Efficacy (Puccinia recondita) [%] | Efficacy (Botrytis cinerea) [%] | Efficacy (Alternaria solani) [%] | Efficacy (Pyrenophora teres [3]) [%] | Efficacy (Septoria tritici) [%] | Efficacy (Uromyces appendiculatus) [%] |
| --- | --- | --- | --- | --- | --- | --- | --- | --- | --- | --- |
| – | 3.19 | CC1C(NC(=O)c2cn(C)nc2C(F)F)CC2CC1C2(C)C (stereo not drawn) [Example 52] | – | – | – | 80 | – | – | – | – |
| 2.46 | – | Cn1nc(C(F)F)c(C(=O)NC2CC3CCC2C3)c1F (stereo not drawn) [Example 48] | – | 88 | 75 | 83 | – | – | 83 | 87 |
| 2.64 | – | Cn1nc(C(F)F)c(C(=O)NC2CC3CCC2C3)c1Cl (stereo not drawn) [Example 47] | – | 88 | – | 97 | – | – | 83 | 83 |
| – | 3.81 | Cn1nc(C(F)F)c(C(=O)NC23CC4CC(CC(C4)C2)C3)c1Cl [Example 57] | – | – | – | 75 | – | – | 75 | – |
| – | 3.19 | CC1C(NC(=O)c2cn(C)nc2C(F)F)CC2CC1C2(C)C (stereo not drawn) [Example 54] | – | – | – | 85 | – | – | – | – |
| 3.79 | – | CC1C(NC(=O)c2c(C(F)F)nn(C)c2Cl)CC2CC1C2(C)C (stereo not drawn) [Example 53] | – | 75 | – | 99 | – | – | 83 | – |
| – | 3.79 | CC1C(NC(=O)c2c(C(F)F)nn(C)c2Cl)CC2CC1C2(C)C (stereo not drawn) [Example 51] | – | – | – | 95 | – | – | – | – |
